Reference: US11142515B2, “Pyrazolyl-ureas as kinase inhibitors” (RESPIVERT LIMITED, priority 2014, dated 2021)
pIC50: −log10 of the molar value.

How the values were obtained:
[1] = biological target: T1, GSK 3α enzyme isoform (Homo sapiens, UniProt P49840); test: GSK 3α enzyme inhibition (Z-LYTE FRET); type: biochemical; conditions: Table 2A; read-out: IC50 Values for Enzyme Inhibition GSK3α
T1 construct: purchased Life Technologies
Experimental: (§1) The enzyme inhibitory activities of compounds disclosed herein were determined by FRET using synthetic peptides labelled with both donor and acceptor fluorophores (Z-LYTE, Life Technologies, Paisley, UK).
The GSK3a protein (500 ng/mL, 2.5 μL) was incubated with the test compound (2.5 μL at either 40 μg/mL, 12 μg/mL, 4 μg/mL, 1.2 μg/mL, 0.4 μg/mL, 0.12 μg/mL, 0.04 μg/mL, 0.012 μg/mL, 0.004 μg/mL or 0.0012 μg/mL) for 2 h at RT. The FRET peptide (8 μM, 2.5 μL), which is a phosphorylation target for GSK3α, and ATP (40 μM, 2.5 μL) was then added to the enzyme/compound mixture and the resulting mixture incubated for 1 h at RT. Development reagent (protease, 5 μL) was added for 1 h prior to detection in a fluorescence microplate reader (EnVision, Perkin Elmer).
(§2) In all cases, the site-specific protease cleaves non-phosphorylated peptide only and eliminates the FRET signal. Phosphorylation levels of each reaction were calculated using the ratio of coumarin emission (donor) over fluorescein emission (acceptor), for which low ratios indicate high phosphorylation and high ratios indicate low phosphorylation levels.

[2] = biological target: T2, Syk (Homo sapiens, UniProt P43405); test: Syk enzyme inhibition (Z-LYTE FRET); type: biochemical; conditions: Table 2A
T2 construct: purchased Life Technologies
Experimental: as §1
(§3) The relevant enzyme (1000 ng/mL, 1400 ng/mL or 2000 ng/mL respectively, 2.5 μL) was incubated with the test compound (either 40 μg/mL, 12 μg/mL, 4 μg/mL, 1.2 μg/mL, 0.4 μg/mL, 0.12 μg/mL, 0.04 μg/mL, 0.012 μg/mL, 0.004 μg/mL or 0.0012 μg/mL, 2.5 μL each) for 2 h at RT. The FRET peptides (8 μM, 2.5 μL), and appropriate ATP solutions (2.5 μL, 800 μM for c-Src, and 60 μM ATP for HCK and Syk) were then added to the enzyme/compound mixtures and incubated for 1 h at RT. Development reagent (protease, 5 μL) was added for 1 h prior to detection in a fluorescence microplate reader (EnVision, Perkin Elmer).
as §2

[3] = biological target: T3, c-Src (Homo sapiens, UniProt P12931); test: c-Src enzyme inhibition (Z-LYTE FRET); type: biochemical; conditions: Table 2A
T3 construct: purchased Life Technologies
T3 sequence (P12931 whole entry): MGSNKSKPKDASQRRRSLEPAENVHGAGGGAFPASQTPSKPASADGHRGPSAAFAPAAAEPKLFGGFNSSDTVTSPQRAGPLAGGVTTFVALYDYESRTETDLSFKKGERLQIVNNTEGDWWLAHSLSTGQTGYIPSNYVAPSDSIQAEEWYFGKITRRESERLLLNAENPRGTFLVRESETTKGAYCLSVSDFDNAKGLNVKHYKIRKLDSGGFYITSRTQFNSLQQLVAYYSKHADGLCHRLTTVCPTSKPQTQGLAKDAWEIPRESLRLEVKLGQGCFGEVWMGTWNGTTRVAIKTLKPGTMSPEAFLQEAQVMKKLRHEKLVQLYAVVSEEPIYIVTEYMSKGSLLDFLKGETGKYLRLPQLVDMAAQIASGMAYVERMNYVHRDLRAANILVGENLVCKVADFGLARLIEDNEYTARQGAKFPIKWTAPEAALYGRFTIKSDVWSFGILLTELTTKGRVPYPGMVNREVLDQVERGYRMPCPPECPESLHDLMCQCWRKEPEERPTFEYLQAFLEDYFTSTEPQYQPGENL
Experimental: as §1, §3, §2

[4] = biological target: T4, p38 MAPKα isoform (MAPK14) (Homo sapiens, UniProt Q16539); test: p38 MAPKα enzyme inhibition (Z-LYTE FRET); type: biochemical; conditions: Table 2A; read-out: IC50 Values for Enzyme Inhibition p38 MAPKα
T4 construct: purchased Life Technologies
T4 sequence (Q16539 whole entry, canonical isoform): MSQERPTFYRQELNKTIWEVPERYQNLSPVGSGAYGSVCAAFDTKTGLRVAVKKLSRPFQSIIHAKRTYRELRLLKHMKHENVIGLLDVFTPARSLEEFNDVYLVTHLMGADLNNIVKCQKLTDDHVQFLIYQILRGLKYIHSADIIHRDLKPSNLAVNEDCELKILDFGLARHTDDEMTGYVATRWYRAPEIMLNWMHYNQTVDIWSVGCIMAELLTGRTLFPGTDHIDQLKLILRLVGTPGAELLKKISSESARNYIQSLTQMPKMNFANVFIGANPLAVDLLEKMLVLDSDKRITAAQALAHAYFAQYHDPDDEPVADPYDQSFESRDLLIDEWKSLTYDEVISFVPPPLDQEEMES
Method in brief: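 Recombinant human MAPK14 (40 ng/mL stock) was preincubated 2 h at RT with compound (stock dilutions 0.0012-40 μg/mL). The Z-LYTE FRET read-out used a MAPKAP-K2-derived peptide, and protease development for 1 h cleaved only non-phosphorylated peptide. Phosphorylation was calculated from the coumarin/fluorescein emission ratio.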

[5] = biological target: T5, p38MAPKγ (MAPK12) (Homo sapiens, UniProt P53778); test: p38 MAPKγ enzyme inhibition (Z-LYTE FRET); type: biochemical; conditions: Table 2A; read-out: IC50 Values for Enzyme Inhibition p38 MAPKγ
T5 construct: purchased Life Technologies
T5 sequence (P53778 1-367): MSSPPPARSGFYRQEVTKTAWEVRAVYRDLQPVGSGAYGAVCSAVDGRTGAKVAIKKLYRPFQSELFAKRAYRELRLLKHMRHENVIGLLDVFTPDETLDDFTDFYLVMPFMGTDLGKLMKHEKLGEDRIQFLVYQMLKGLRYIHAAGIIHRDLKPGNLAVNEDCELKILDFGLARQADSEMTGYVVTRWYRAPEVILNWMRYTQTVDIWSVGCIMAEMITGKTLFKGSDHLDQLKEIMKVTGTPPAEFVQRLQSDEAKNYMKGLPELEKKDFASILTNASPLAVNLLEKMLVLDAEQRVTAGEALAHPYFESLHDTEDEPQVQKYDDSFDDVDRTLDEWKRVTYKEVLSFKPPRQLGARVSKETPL
Method in brief: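 Z-LYTE read-out: after 1 h protease development, only non-phosphorylated peptide is cleaved, and the donor/acceptor (coumarin/fluorescein) ratio reports phosphorylation. Beforehand, enzyme and compound (stock concentrations 0.0012–40 μg/mL) were preincubated 2 h at RT, then the kinase reaction ran 1 h at RT with peptide and ATP (8 μM and 400 μM stocks).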

[6] = tested on: d-U937 cells; test: Cell viability: MTT assay in differentiated U937 cells; type: cell-based, human; conditions: 10 μg/mL
Method in brief: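 Differentiated U937 cells exposed to compound at a final 10 μg/mL, either 4 h in 5% FCS RPMI1640 or 24 h in 10% FCS RPMI1640. MTT added for 1 h, formazan dissolved in DMSO, absorbance read at 550 nm; % viability loss relative to 0.5% DMSO vehicle, with increases shown as negative values.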

T1 sequence (P49840 whole entry, canonical isoform): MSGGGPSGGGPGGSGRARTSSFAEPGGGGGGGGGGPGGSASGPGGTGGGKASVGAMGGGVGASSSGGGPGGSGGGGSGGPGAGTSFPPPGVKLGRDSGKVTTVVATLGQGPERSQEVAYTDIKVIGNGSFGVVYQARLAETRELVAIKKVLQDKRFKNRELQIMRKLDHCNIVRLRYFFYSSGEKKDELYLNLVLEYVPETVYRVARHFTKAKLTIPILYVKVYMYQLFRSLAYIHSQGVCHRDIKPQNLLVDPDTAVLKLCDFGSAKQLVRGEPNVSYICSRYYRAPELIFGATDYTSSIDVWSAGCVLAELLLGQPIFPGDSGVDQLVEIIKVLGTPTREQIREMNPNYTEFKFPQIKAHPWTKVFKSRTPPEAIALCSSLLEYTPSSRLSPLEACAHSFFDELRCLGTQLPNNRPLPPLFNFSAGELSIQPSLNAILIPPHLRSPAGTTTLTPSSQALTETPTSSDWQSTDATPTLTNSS

Row | Compound | pIC50 [1] | pIC50 [2] | pIC50 [3] | pIC50 [4] | pIC50 [5] | MTT Assay Cell viability at time point indicated in d-U937 Cells, 4 h [6] | MTT Assay Cell viability at time point indicated in d-U937 Cells, 24 h [6]
1 | COc1ccc(-n2nc(C(C)(C)C)cc2NC(=O)Nc2ccc(OCc3ccnc(Nc4cnccn4)c3)c3ccccc23)cc1Cl [Example 46] | 5.15 | 5.17 | 6.41 | 7.07 | 5.71 | − (−ve and +ve indicate the value is below and above, respectively, the no significant effect threshold defined as 30% inhibition at 10 μg/mL at the time point indicated) | − (−ve and +ve indicate the value is below and above, respectively, the no significant effect threshold defined as 30% inhibition at 10 μg/mL at the time point indicated)
2 | Cc1ccc(-n2nc(C(C)(C)C)cc2NC(=O)Nc2ccc(OCc3ccnc(Nc4cncc(CO)n4)c3)c3ccccc23)cc1 [Example 21] | 5.80 | < 4.80 | 7.48 | 8.30 | 7.51 | − (−ve and +ve indicate the value is below and above, respectively, the no significant effect threshold defined as 30% inhibition at 10 μg/mL at the time point indicated) | − (−ve and +ve indicate the value is below and above, respectively, the no significant effect threshold defined as 30% inhibition at 10 μg/mL at the time point indicated)
3 | Cc1ccc(-n2nc(C(C)(C)C)cc2NC(=O)Nc2ccc(OCc3ccnc(Nc4cnc(CC(=O)N(C)C)cn4)c3)c3ccccc23)cc1 [Example 29] | 6.68 | < 4.83 | 7.55 | 8.30 | 7.10 | − (−ve and +ve indicate the value is below and above, respectively, the no significant effect threshold defined as 30% inhibition at 10 μg/mL at the time point indicated) | + (−ve and +ve indicate the value is below and above, respectively, the no significant effect threshold defined as 30% inhibition at 10 μg/mL at the time point indicated)
4 | Cc1ccc(-n2nc(C(C)(C)C)cc2NC(=O)Nc2ccc(OCc3ccnc(Nc4cncc(C5CCCC5)n4)c3)c3ccccc23)cc1 [Example 48] | 5.38 | < 4.82 | 6.34 | 7.04 | 5.91 | − (−ve and +ve indicate the value is below and above, respectively, the no significant effect threshold defined as 30% inhibition at 10 μg/mL at the time point indicated) | − (−ve and +ve indicate the value is below and above, respectively, the no significant effect threshold defined as 30% inhibition at 10 μg/mL at the time point indicated)
5 | CCc1ccc(-n2nc(C(C)(C)C)cc2NC(=O)Nc2ccc(OCc3ccnc(Nc4cnccn4)c3)c3ccccc23)cc1 [Example 42] | 5.16 | < 4.79 | 6.27 | 7.82 | 6.28 | − (−ve and +ve indicate the value is below and above, respectively, the no significant effect threshold defined as 30% inhibition at 10 μg/mL at the time point indicated) | − (−ve and +ve indicate the value is below and above, respectively, the no significant effect threshold defined as 30% inhibition at 10 μg/mL at the time point indicated)
6 | COCCNC(=O)c1cnc(Nc2cc(COc3ccc(NC(=O)Nc4cc(C(C)(C)C)nn4-c4ccc(C)s4)c4ccccc34)ccn2)cn1 [Example 43] | 5.10 | < 4.85 | 7.14 | 7.92 | 6.40 | − (−ve and +ve indicate the value is below and above, respectively, the no significant effect threshold defined as 30% inhibition at 10 μg/mL at the time point indicated) | − (−ve and +ve indicate the value is below and above, respectively, the no significant effect threshold defined as 30% inhibition at 10 μg/mL at the time point indicated)
7 | Cc1ccc(-n2nc(C(C)(C)C)cc2NC(=O)Nc2ccc(OCc3ccnc(Nc4cncc(C5CCC5)n4)c3)c3ccccc23)cc1 [Example 47] | 5.55 | 5.38 | 6.40 | 7.06 | 6.33 | − (−ve and +ve indicate the value is below and above, respectively, the no significant effect threshold defined as 30% inhibition at 10 μg/mL at the time point indicated) | − (−ve and +ve indicate the value is below and above, respectively, the no significant effect threshold defined as 30% inhibition at 10 μg/mL at the time point indicated)
8 | CC(C)c1ccc(-n2nc(C(C)(C)C)cc2NC(=O)Nc2ccc(OCc3ccnc(Nc4cnccn4)c3)c3ccccc23)cc1 [Example 41] | 5.45 | 5.21 | 4.96 | 6.72 | < 4.80 | − (−ve and +ve indicate the value is below and above, respectively, the no significant effect threshold defined as 30% inhibition at 10 μg/mL at the time point indicated) | − (−ve and +ve indicate the value is below and above, respectively, the no significant effect threshold defined as 30% inhibition at 10 μg/mL at the time point indicated)
9 | COc1ccc(-n2nc(C(C)(C)C)cc2NC(=O)Nc2ccc(OCc3ccnc(Nc4cnccn4)c3)c3ccccc23)cn1 [Example 12] | < 4.79 | < 4.79 | 6.98 | 7.85 | 6.70 | − (−ve and +ve indicate the value is below and above, respectively, the no significant effect threshold defined as 30% inhibition at 10 μg/mL at the time point indicated) | − (−ve and +ve indicate the value is below and above, respectively, the no significant effect threshold defined as 30% inhibition at 10 μg/mL at the time point indicated)
10 | COc1cncc(Nc2cc(COc3ccc(NC(=O)Nc4cc(C(C)(C)C)nn4-c4ccc(C)cc4)c4ccccc34)ccn2)n1 [Example 18] | 5.04 | < 4.80 | 6.71 | 7.89 | 6.98 | − (−ve and +ve indicate the value is below and above, respectively, the no significant effect threshold defined as 30% inhibition at 10 μg/mL at the time point indicated) | + (−ve and +ve indicate the value is below and above, respectively, the no significant effect threshold defined as 30% inhibition at 10 μg/mL at the time point indicated)
